Measurements from a melting point compilation (Tetko et al.; mined from patent text by program, amines drawn as free bases though some values may be those of a salt).

melting point [°C]	Structure (SMILES)
157 to 158	Cc1cc(CCC(=O)c2ccc(-c3ccc(C(F)(F)F)cc3)s2)cc(C)c1OC(C)(C)C(=O)O
210 to 212	COc1ccc(OC)c2c(=O)cc(C(=O)O)sc12
206	Cc1cc(C#Cc2cnn3c(C(F)(F)F)cc(-c4ccc(C(F)(F)F)cc4)nc23)ccn1
205 to 206	Cn1ncc2c1-c1c(Sc3ccccc3)sc(C(=O)O)c1CC2
107 to 110	COc1cccc(-c2cc(NC(=O)CC(=O)C(F)(F)F)[nH]n2)c1
107 to 108	Cc1cccc(Nc2ccccc2C=NO)c1C
> 250	CN1C(=O)C2(COc3cc4c(cc32)OCCO4)c2c(C(=O)Nc3ccc(F)cc3)cccc21 (stereo unspecified)
152 to 153	Cc1nn2c(C=O)c(-c3ccccc3)nc2s1
124 to 127	O=C1c2ccccc2N(Cc2cccs2)C2=NCCN12
44 to 45	CC(O)c1cc2c(cn1)CCCC2 (stereo unspecified)
206 to 208	COCCN1CCN(S(=O)(=O)c2ccc(-c3cnc4[nH]c(CCc5cc(OC)ccn5)nc4c3)cc2)CC1
102 to 104	CCOC(=O)C(C)c1ccc(CC2CCCCC2=NO)cc1 (stereo unspecified)
336 to 338	Oc1ccc(-c2nc3ccccc3nc2-c2ccc(O)cc2)cc1
182 to 184	C[C@H](NC(=O)c1c(CBr)c(-c2ccccc2)nc2ccccc12)C1CCCCC1
153 to 155	CCCCC(=O)Nc1ccc(C(=O)CCC(=O)O)cc1
115 to 117	CCOC(=O)c1nn(-c2ccc(C)cc2)cc1-c1ccccc1
286 to 287	CC1CNCc2c1[nH]c1cnc3cc(Cl)ccc3c21 (stereo unspecified)
101 to 104	O=C(Nc1ccc(OC(F)(F)F)cc1)N1CC(c2sncc2C(F)(F)F)C(c2ccc(Cl)cc2)=N1 (stereo unspecified)
42 to 43	CCCCCCCC(=O)OCCCCCCOc1ccc(Nc2ccccc2)cc1

melting point [°C]	Structure (SMILES)
136 to 138	COc1ccc(-c2csc(CO)c2)cc1
80 to 84	CC(=O)OCC1(c2ccc(F)cc2)CCC(=O)CC1
250	CCOc1ccc2c(c1)n(C1CCCCC1)c(=O)n2Cc1ccc(NC(=O)N(C)C)cc1OC
255 to 257	CC1(C)OC(=O)Nc2ccc(-c3ccc(Cl)cc3)cc21
95 to 102	COC(=O)C1=C(C)NC(C)=C(C(=O)OC(C)CCl)C1c1cccc([N+](=O)[O-])c1 (stereo unspecified)
105 to 107	COc1c(C=O)c(=O)n(C)c(=O)n1C
111 to 112	Cc1ccc(-n2cccc2C=O)c(Cl)c1
194 to 195	OC1CSC(Oc2ccc(-c3ccc(C(F)(F)F)cc3)nc2)C(O)C1O (stereo unspecified)
174 to 175	NS(=O)(=O)c1cc(Br)cc(C(F)(F)F)c1
77 to 78	c1ccc2c(c1)CSSC2
159	CC(C)c1nn(C(=O)NC(C)(C)CCc2ccccc2Cl)c(=O)n1N
37 to 39	O=[N+]([O-])c1ccc(OCCCCl)cc1
216 to 217	O=c1cc(-c2ccc(F)cc2)oc(N2CCOCC2)c1
258 to 260	O=C(CCNc1c(C(=O)O)[nH]c2cc(Cl)ccc12)c1cccc(F)c1
203 to 204	O=C(N[C@H](Cc1ccc(F)cc1)[C@@H](O)c1ccc(F)cc1)C1CCCCC1 (racemic)
81 to 83	CN1C(=O)CC(C)(C)c2cc(C3(C)OCCO3)ccc21
220	O=C1CC(c2cccc(-n3ccnc3)c2)=Nc2ccc(-c3ccc(F)cc3O)cc2N1
189 to 191	COc1cc(Nc2c(C#N)cnc3cc(-c4ccc(CN5CCN(C)CC5)cc4)sc23)cc(OC)c1OC
> 300	Cc1cc([N+](=O)[O-])cc(C(=O)Nc2nnn[nH]2)n1

Structure (SMILES)	melting point [°C]
CN1CC(C(=O)COC(=O)c2ccccc2)CC2c3cccc4[nH]cc(c34)CC21 (stereo unspecified)	163 to 165
O=C1c2ccccc2C(O)(c2ccccc2)N1CCCN1CC=C(c2ccccc2)CC1 (stereo unspecified)	123
CC12C=CC(=O)C=C1C(N)CC1C2CCC2(C)C(=O)CCC12 (stereo unspecified)	186 to 191
